Source: US3968207A, “Method of controlling fleas and ticks on cats and dogs” (priority 1975, dated 1976)

Legend:
Assay type in all cases: in vivo
[1] = tested on: Boophilus microplus larvae; assay: Control of acarina larvae in pipettes (simulated spray); settings: Rhipicephalus microplus, 48 hours, read-out: Activity (larval mortality)
Description: Boophilus is a one-host tick which uses only one host animal during its three parasitic life stages (larvae, nymph, adult). […] Twenty larvae are enclosed in a pipette sealed at one end with a gauze material, and the "solution" containing the test compound is then drawn through the pipette with a vacuum hose, simulating a spray system. The open end of the pipette is sealed with plastiline and the ticks held for 48 hours at room temperature and 80+% humidity. Activity is based on mortality. The test compound was 100%, 100% and 0% active at 0.01%, 0.001% and 0.0001% (w/w), respectively.

Ctenocephalides felis [2] = assay: 2% pressurized spray for control of fleas on dogs
Description: An experiment was carried out on dogs obtained from a licensed laboratory animal dealer. These dogs were mixed breeds and of different size and sex. The dogs were individually housed in cages with absorbent paper placed under each in order to count dead fleas. A mixture containing 2% O,O,O',O'-tetramethyl O,O'-thiodi-p-phenylene phosphorothioate (active ingredient) and having the following formula was used as a pressurized spray: […]
Two tests were carried out, one with 22 dogs and the other with 21 dogs, each test using 5 control dogs. Each dog was treated with approximately 60 mg./kg. of O,O,O',O'-tetramethyl O,O'-thiodi-p-phenylene phosphorothioate using the formulation described above. Each dog was infested with 100 1-day old adult C. felis 72 hours prior to spray treatment and reinfested on a weekly basis for 7 weeks, beginning 7 days after treatment. The five control dogs were treated with a blank spray containing everything except the active ingredient. After treatment or each reinfestation, daily examinations of each dog were made up to 7 days or until no live fleas could be found. Once a live flea was found, the dog was considered still infested even though the flea population may have been low. The number of dead fleas recovered from papers under the cages are expressed as average dead on treated/average dead on control are summarized in Table XVII.

Ctenocephalides felis [3] = assay: Topical (spray or 2% dust) flea control on dogs, Table I
Description: Dogs used in testing were placed in raised cages with steel grate floors. Three days prior to treatment, 100 fleas were placed on each dog. On the day of treatment each cage was lined with absorbent brown paper. Dogs were treated at various dose levels (1-60 mg./kg.) applied topically using a 2% active ingredient dust formulation, or a dilute aqueous dispersion applied as a spray. Activity was determined by the number of dead fleas recovered from the brown paper, and a systematic examination of the test animal in relation to infested, untreated control dogs.
Residual activity of the initial application of the test compound was done by experimentally reinfesting each dog at 7-day intervals with an additional 100 adult C. felis. Activity was determined as described above.

Ctenocephalides felis [4] = assay: Flea control on dogs fed medicated diet, Table IV; parameters: key: 100% Control; PC: Partial Control; NC: No Control
Description: Five groups of two mongrel dogs each were fed a daily dose of 0, 6.25, 25, 100 or 400 mg. O,O,O',O'-tetramethyl O,O'-thiodi-p-phenylene phosphorothioate/kg. body weight in Agway Big Red Dog Meal. Dogs eating less than 75% of the food were given a corrected dose by gelatin capsule to equal 100%. Medication began 1 day after infesting each dog with 100 adult Ctenocephalides felis and 2 days before infesting each dog with 10 Dermacentor variabiles and 10 Rhipicephalus sanguineus adults.

## COP(=S)(OC)Oc1ccc(Sc2ccc(OP(=S)(OC)OC)cc2)cc1 [O,O,O',O'-tetramethyl O,O'-thiodi-p-phenylene phosphorothioate]
[1]; 0.0001% (w/w)
  mortality at 0.0001 %: 0%
[1]; 0.001% (w/w)
  mortality at 0.001 %: 100%
[1]; 0.01% (w/w)
  mortality at 0.01 %: 100%
Ctenocephalides felis [2]; 60 mg/kg 2% pressurized spray, week 0
  Percent of Dogs with Control: 100%
Ctenocephalides felis [2]; 60 mg/kg 2% pressurized spray, week 1
  Percent of Dogs with Control: 100%
Ctenocephalides felis [2]; 60 mg/kg 2% pressurized spray, week 2
  Percent of Dogs with Control: 100%
Ctenocephalides felis [2]; 60 mg/kg 2% pressurized spray, week 3
  Percent of Dogs with Control: 100%
Ctenocephalides felis [2]; 60 mg/kg 2% pressurized spray, week 4
  Percent of Dogs with Control: 97.6%
Ctenocephalides felis [2]; 60 mg/kg 2% pressurized spray, week 5
  Percent of Dogs with Control: 95.2%
Ctenocephalides felis [2]; 60 mg/kg 2% pressurized spray, week 6
  Percent of Dogs with Control: 82.9%
Ctenocephalides felis [2]; 60 mg/kg 2% pressurized spray, week 7
  Percent of Dogs with Control: 58.5%
Ctenocephalides felis [2]; 60 mg/kg, week 0, control 2.0
  Avg. Dead on Treated, Average on Two Tests: 36.3
Ctenocephalides felis [2]; 60 mg/kg, week 1, control 5.6
  Avg. Dead on Treated, Average on Two Tests: 41.4
Ctenocephalides felis [2]; 60 mg/kg, week 2, control 3.0
  Avg. Dead on Treated, Average on Two Tests: 41.2
Ctenocephalides felis [2]; 60 mg/kg, week 3, control 4.8
  Avg. Dead on Treated, Average on Two Tests: 41.2
Ctenocephalides felis [2]; 60 mg/kg, week 4, control 5.2
  Avg. Dead on Treated, Average on Two Tests: 40.7
Ctenocephalides felis [2]; 60 mg/kg, week 5, control 5.6
  Avg. Dead on Treated, Average on Two Tests: 36.0
Ctenocephalides felis [2]; 60 mg/kg, week 6, control 4.8
  Avg. Dead on Treated, Average on Two Tests: 30.0
Ctenocephalides felis [2]; 60 mg/kg, week 7, control 4.8
  Avg. Dead on Treated, Average on Two Tests: 26.3
Ctenocephalides felis [2]; Combination of Test 1 & 2, 60 mg/kg, week 0, of 43
  Number of Dogs on Which Fleas were Controlled: 43 dogs
Ctenocephalides felis [2]; Combination of Test 1 & 2, 60 mg/kg, week 1, of 43
  Number of Dogs on Which Fleas were Controlled: 43 dogs
Ctenocephalides felis [2]; Combination of Test 1 & 2, 60 mg/kg, week 2, of 43
  Number of Dogs on Which Fleas were Controlled: 43 dogs
Ctenocephalides felis [2]; Combination of Test 1 & 2, 60 mg/kg, week 3, of 42
  Number of Dogs on Which Fleas were Controlled: 42 dogs
Ctenocephalides felis [2]; Combination of Test 1 & 2, 60 mg/kg, week 4, of 42
  Number of Dogs on Which Fleas were Controlled: 41 dogs
Ctenocephalides felis [2]; Combination of Test 1 & 2, 60 mg/kg, week 5, of 42
  Number of Dogs on Which Fleas were Controlled: 40 dogs
Ctenocephalides felis [2]; Combination of Test 1 & 2, 60 mg/kg, week 6, of 41
  Number of Dogs on Which Fleas were Controlled: 34 dogs
Ctenocephalides felis [2]; Combination of Test 1 & 2, 60 mg/kg, week 7, of 41
  Number of Dogs on Which Fleas were Controlled: 24 dogs
Ctenocephalides felis [2]; Experiment 1, 60 mg/kg 2% pressurized spray, week 0, of 22
  Number of Dogs on Which Fleas were Controlled: 22 dogs
Ctenocephalides felis [2]; Experiment 1, 60 mg/kg 2% pressurized spray, week 1, of 22
  Number of Dogs on Which Fleas were Controlled: 22 dogs
Ctenocephalides felis [2]; Experiment 1, 60 mg/kg 2% pressurized spray, week 2, of 22
  Number of Dogs on Which Fleas were Controlled: 22 dogs
Ctenocephalides felis [2]; Experiment 1, 60 mg/kg 2% pressurized spray, week 3, of 22
  Number of Dogs on Which Fleas were Controlled: 22 dogs
Ctenocephalides felis [2]; Experiment 1, 60 mg/kg 2% pressurized spray, week 4, of 22
  Number of Dogs on Which Fleas were Controlled: 22 dogs
Ctenocephalides felis [2]; Experiment 1, 60 mg/kg 2% pressurized spray, week 5, of 22
  Number of Dogs on Which Fleas were Controlled: 22 dogs
Ctenocephalides felis [2]; Experiment 1, 60 mg/kg 2% pressurized spray, week 6, of 22**
  Number of Dogs on Which Fleas were Controlled: 20 dogs
Ctenocephalides felis [2]; Experiment 1, 60 mg/kg 2% pressurized spray, week 7, of 21
  Number of Dogs on Which Fleas were Controlled: 12 dogs
Ctenocephalides felis [2]; Experiment 2, 60 mg/kg 2% pressurized spray, week 0, of 21
  Number of Dogs on Which Fleas were Controlled: 21 dogs
Ctenocephalides felis [2]; Experiment 2, 60 mg/kg 2% pressurized spray, week 1, of 21
  Number of Dogs on Which Fleas were Controlled: 21 dogs
Ctenocephalides felis [2]; Experiment 2, 60 mg/kg 2% pressurized spray, week 2, of 21
  Number of Dogs on Which Fleas were Controlled: 21 dogs
Ctenocephalides felis [2]; Experiment 2, 60 mg/kg 2% pressurized spray, week 3, of 20**
  Number of Dogs on Which Fleas were Controlled: 20 dogs
Ctenocephalides felis [2]; Experiment 2, 60 mg/kg 2% pressurized spray, week 4, of 20
  Number of Dogs on Which Fleas were Controlled: 19 dogs
Ctenocephalides felis [2]; Experiment 2, 60 mg/kg 2% pressurized spray, week 5, of 20
  Number of Dogs on Which Fleas were Controlled: 18 dogs
Ctenocephalides felis [2]; Experiment 2, 60 mg/kg 2% pressurized spray, week 6, of 20
  Number of Dogs on Which Fleas were Controlled: 14 dogs
Ctenocephalides felis [2]; Experiment 2, 60 mg/kg 2% pressurized spray, week 7, of 20
  Number of Dogs on Which Fleas were Controlled: 12 dogs
Ctenocephalides felis [2]; Test 1, 60 mg/kg, week 0, control 38
  Avg. Dead on Treated: 34.6
Ctenocephalides felis [2]; Test 1, 60 mg/kg, week 1, control 10.4
  Avg. Dead on Treated: 38.2
Ctenocephalides felis [2]; Test 1, 60 mg/kg, week 2, control 3.4
  Avg. Dead on Treated: 42.1
Ctenocephalides felis [2]; Test 1, 60 mg/kg, week 3, control 4.6
  Avg. Dead on Treated: 41.6
Ctenocephalides felis [2]; Test 1, 60 mg/kg, week 4, control 5.4
  Avg. Dead on Treated: 37.8
Ctenocephalides felis [2]; Test 1, 60 mg/kg, week 5, control 5.0
  Avg. Dead on Treated: 34.1
Ctenocephalides felis [2]; Test 1, 60 mg/kg, week 6, control 6.2
  Avg. Dead on Treated: 34.1
Ctenocephalides felis [2]; Test 1, 60 mg/kg, week 7, control 6.6
  Avg. Dead on Treated: 30.8
Ctenocephalides felis [2]; Test 2, 60 mg/kg, week 0, control .2
  Avg. Dead on Treated: 38.0
Ctenocephalides felis [2]; Test 2, 60 mg/kg, week 1, control .8
  Avg. Dead on Treated: 44.5
Ctenocephalides felis [2]; Test 2, 60 mg/kg, week 2, control 2.6
  Avg. Dead on Treated: 40.3
Ctenocephalides felis [2]; Test 2, 60 mg/kg, week 3, control 5.0
  Avg. Dead on Treated: 40.7
Ctenocephalides felis [2]; Test 2, 60 mg/kg, week 4, control 5.0
  Avg. Dead on Treated: 43.6
Ctenocephalides felis [2]; Test 2, 60 mg/kg, week 5, control 6.2
  Avg. Dead on Treated: 37.9
Ctenocephalides felis [2]; Test 2, 60 mg/kg, week 6, control 3.5
  Avg. Dead on Treated: 26.0
Ctenocephalides felis [2]; Test 2, 60 mg/kg, week 7, control 3.0
  Avg. Dead on Treated: 21.8
Ctenocephalides felis [3]; 2% dust 10.0 mg/kg, day 0
  Percent Activity: 100%
Ctenocephalides felis [3]; 2% dust 10.0 mg/kg, day 7
  Percent Activity: 100%
Ctenocephalides felis [3]; 2% dust 10.0 mg/kg, day 14
  Percent Activity: 100%
Ctenocephalides felis [3]; 2% dust 10.0 mg/kg, day 21
  Percent Activity: 100%
Ctenocephalides felis [3]; 2% dust 10.0 mg/kg, day 28
  Percent Activity: 80%
Ctenocephalides felis [3]; 2% dust 10.0 mg/kg, day 42
  Percent Activity: 0%
Ctenocephalides felis [3]; 2% dust 20.0 mg/kg, day 0
  Percent Activity: 100%
Ctenocephalides felis [3]; 2% dust 20.0 mg/kg, day 7
  Percent Activity: 100%
Ctenocephalides felis [3]; 2% dust 20.0 mg/kg, day 14
  Percent Activity: 100%
Ctenocephalides felis [3]; 2% dust 20.0 mg/kg, day 21
  Percent Activity: 100%
Ctenocephalides felis [3]; 2% dust 20.0 mg/kg, day 28
  Percent Activity: 100%
Ctenocephalides felis [3]; 2% dust 20.0 mg/kg, day 42
  Percent Activity: 0%
Ctenocephalides felis [3]; 2% dust 40.0 mg/kg, day 0
  Percent Activity: 100%
Ctenocephalides felis [3]; 2% dust 40.0 mg/kg, day 7
  Percent Activity: 100%
Ctenocephalides felis [3]; 2% dust 40.0 mg/kg, day 14
  Percent Activity: 100%
Ctenocephalides felis [3]; 2% dust 40.0 mg/kg, day 21
  Percent Activity: 100%
Ctenocephalides felis [3]; 2% dust 40.0 mg/kg, day 28
  Percent Activity: 100%
Ctenocephalides felis [3]; 2% dust 40.0 mg/kg, day 42
  Percent Activity: 0%
Ctenocephalides felis [3]; spray 1.25 mg/kg, day 0
  Percent Activity: 100%
Ctenocephalides felis [3]; spray 1.25 mg/kg, day 7
  Percent Activity: 100%
Ctenocephalides felis [3]; spray 1.25 mg/kg, day 14
  Percent Activity: 100%
Ctenocephalides felis [3]; spray 1.25 mg/kg, day 21
  Percent Activity: 100%
Ctenocephalides felis [3]; spray 1.25 mg/kg, day 25
  Percent Activity: 0%
Ctenocephalides felis [3]; spray 2.5 mg/kg, day 0
  Percent Activity: 100%
Ctenocephalides felis [3]; spray 2.5 mg/kg, day 7
  Percent Activity: 100%
Ctenocephalides felis [3]; spray 2.5 mg/kg, day 14
  Percent Activity: 100%
Ctenocephalides felis [3]; spray 2.5 mg/kg, day 21
  Percent Activity: 0%
Ctenocephalides felis [3]; spray 10.0 mg/kg, day 0
  Percent Activity: 100%
Ctenocephalides felis [3]; spray 10.0 mg/kg, day 7
  Percent Activity: 100%
Ctenocephalides felis [3]; spray 10.0 mg/kg, day 14
  Percent Activity: 100%
Ctenocephalides felis [3]; spray 10.0 mg/kg, day 21
  Percent Activity: 100%
Ctenocephalides felis [3]; spray 10.0 mg/kg, day 28
  Percent Activity: 10%
Ctenocephalides felis [4]; 6.25 mg/kg in feed, 1 dog, after 3 days
  Flea Control: complete flea control
Ctenocephalides felis [4]; 6.25 mg/kg in feed, other dog, after 4 days
  Flea Control: complete flea control
Ctenocephalides felis [4]; 400, 100 or 25 mg/kg in feed, all dogs, after 48 hours
  Flea Control: Complete flea control
Ctenocephalides felis [4]; in feed 6.25 mg/kg daily, day 2
  Flea Control: NC and PC
Ctenocephalides felis [4]; in feed 6.25 mg/kg daily, day 4
  Flea Control: 100 (100% Control)
Ctenocephalides felis [4]; in feed 25 mg/kg daily, day 2
  Flea Control: 100 (100% Control)
Ctenocephalides felis [4]; in feed 100 mg/kg daily, day 2
  Flea Control: 100 (100% Control)
Ctenocephalides felis [4]; in feed 400 mg/kg daily, day 2
  Flea Control: 100 (100% Control)
